Test results taken from US20260206754A1, “HETEROARYL COMPOUNDS FOR THE CONTROL OF INVERTEBRATE PESTS” (priority 2022, published 2026).
Like-named read-outs stand apart in the source and are kept apart here.

Assays:
Type in all cases: in vivo
[1] = tested on: yellow fever mosquito (Aedes aegypti); test: whole plant or invertebrate; conditions: for mortality at 2500 ppm: 48 h, larval mortality after 2 days, read-out: mortality in comparison with untreated controls
Procedure: (§1) If not otherwise specified, the test solutions were prepared as follow: The active compound was dissolved at the desired concentration in a mixture of 1:1 (vol:vol) distilled water:acetone. The test solution was prepared on the day of use.
B.5 Yellow Fever Mosquito (Aedes aegypti)
For evaluating control of yellow fever mosquito (Aedes aegypti) the test unit consisted of 96-well-microtiter plates containing 200 μl of tap water per well and 5-15 freshly hatched A. aegypti larvae.
The active compounds were formulated using a solution containing 75% (v/v) water and 25% (v/v) DMSO. Different concentrations of formulated compounds or mixtures were sprayed onto the insect diet at 2.5 μl, using a custom-built micro atomizer, at two replications.
After application, microtiter plates were incubated at 281° C., 80±5% RH for 2 days. Larval mortality was then visually assessed.

[2] = tested on: Southern armyworm (Spodoptera eridania), 2nd instar larvae; test: B.3 Southern armyworm, 2nd instar larvae, foliar spray on lima bean plants; conditions: 96 h, 4 days after treatment, read-out: mortality in comparison with untreated controls
Procedure: B.3 Southern Armyworm (Spodoptera eridania), 2nd Instar Larvae
The active compounds were formulated by a Tecan liquid handler in 100% cyclohexanone as a 10,000-ppm solution supplied in tubes. The 10,000-ppm solution was serially diluted in 100% cyclohexanone to make interim solutions. These served as stock solutions for which final dilutions were made by the Tecan in 50% acetone:50% water (v/v) into 10 or 20 ml glass vials. A non-ionic surfactant (Kinetic@) was included in the solution at a volume of 0.01% (v/v). The vials were then inserted into an automated electrostatic sprayer equipped with an atomizing nozzle for application to plants/insects. Lima bean plants (variety Sieva) were grown 2 plants to a pot and selected for treatment at the 1st true leaf stage. Test solutions were sprayed onto the foliage by an auto-mated electrostatic plant sprayer equipped with an atomizing spray nozzle. The plants were dried in the sprayer fume hood and then removed from the sprayer. Each pot was placed into perforated plastic bags with a zip closure. Ten to 11 armyworm larvae were placed into the bag and the bags zipped closed. Test plants were maintained in a growth room at about 25° C. and about 20-40% relative humidity for 4 days, avoiding direct exposure to fluorescent light (14:10 light:dark photoperiod) to prevent trapping of heat inside the bags. Mortality and reduced feeding were assessed 4 days after treatment, compared to untreated control plants.

[3] = tested on: green peach aphid (Myzus persicae); test: B.6 Green peach aphid, systemic test with artificial diet under membrane
Procedure: as §1
B.6 Green Peach Aphid (Myzus persicae)
For evaluating control of green peach aphid (Myzus persicae) through systemic means, the test unit consisted of 96-well-microtiter plates containing liquid artificial diet under an artificial membrane.
The compounds were formulated using a solution containing 75% v/v water and 25% v/v DMSO. Different concentrations of formulated compounds were pipetted into the aphid diet, using a custom built pipetter, at two replications.
After application, 5-8 adult aphids were placed on the artificial membrane inside the microtiter plate wells. The aphids were then allowed to suck on the treated aphid diet and incubated at about 23±1° C. and about 50±5% relative humidity for 3 days. Aphid mortality and fecundity was then visually assessed.

[4] = tested on: boll weevil (Anthonomus grandis); test: B.2 Boll weevil, 96-well microtiter plate diet test with eggs; conditions: for mortality at 2500 ppm: 120 h, egg and larval mortality after 5 days, read-out: mortality in comparison with untreated controls; for mortality at 9.9 ppm: comparative experiment C.9
Procedure: as §1
B.2 Boll Weevil (Anthonomus grandis)
For evaluating control of boll weevil (Anthonomus grandis) the test unit consisted of 96-well-microtiter plates containing an insect diet and 5-10 A. grandis eggs.
The compounds were formulated using a solution containing 75% v/v water and 25% v/v DMSO. Different concentrations of formulated compounds were sprayed onto the insect diet at 5 μl, using a custom-built micro atomizer, at two replications.
After application, microtiter plates were incubated at about 25±1° C. and about 75±5% relative humidity for 5 days. Egg and larval mortality was then visually assessed.

[5] = tested on: tobacco budworm (Heliothis virescens); test: B.1 Tobacco budworm, 96-well microtiter plate diet test with eggs; conditions: for mortality at 2500 ppm: 120 h, egg and larval mortality after 5 days, read-out: mortality in comparison with untreated controls; for mortality at 100 ppm: comparative experiment C.6; for mortality at 274 ppm: comparative experiment C.9
Procedure: as §1
B.1 Tobacco Budworm (Heliothis virescens)
For evaluating control of tobacco budworm (Heliothis virescens) the test unit consisted of 96-well-microtiter plates containing an insect diet and 15-25 H. virescens eggs.
The compounds were formulated using a solution containing 75% v/v water and 25% v/v DMSO. Different concentrations of formulated compounds were sprayed onto the insect diet at 10 μl, using a custom-built micro atomizer, at two replications.
After application, microtiter plates were incubated at about 28±1° C. and about 80±5% relative humidity for 5 days. Egg and larval mortality was then visually assessed.

[6] = 72 h, aphid mortality after 3 days, read-out: mortality in comparison with untreated controls
[7] = comparative experiment C.8, read-out: B.6, 2500 ppm (mortality)
[8] = Anthonomus grandis, 90 ppm, comparative experiment C.8
[9] = Anthonomus grandis, 90 ppm, comparative experiment C.7

Compound	mortality at 2500 ppm [1] [%]	mortality at 2500 ppm [3, 6] [%]	mortality at 2500 ppm ([4]; Anthonomus grandis) [%]	mortality at 2500 ppm [5] [%]	further results
CC(NC(=O)c1cc(C(F)(F)F)cc(C(F)(F)F)c1)c1nccnc1-n1ncc(-c2cccnc2)n1 (stereo not shown) [I-8]	≥ 75	≥ 75	≥ 75	≥ 75	mortality at 300 ppm [2]: ≥ 75%; mortality at 30 ppm ([3]; comparative experiment C.2): 100%
CSc1cnn(-c2c(Cl)ccnc2C(C)NC(=O)c2cc(C(F)(F)F)cc(C(F)(F)F)c2)c1 (stereo not shown) [I-26, N-[1-[4-chloro-3-(4-methylsulfanylpyrazol-1-yl)-2-pyridyl]ethyl]-3,5-bis(trifluoromethyl)benzamide]	≥ 75		≥ 75	≥ 75	mortality at 300 ppm [2]: ≥ 75%
CC(NC(=O)c1cc(C(F)(F)F)cc(C(F)(F)F)c1)c1nccc(Cl)c1-n1cc([S+](C)[O-])cn1 (stereo not shown) [I-28, N-[1-[4-chloro-3-(4-methylsulfinylpyrazol-1-yl)-2-pyridyl]ethyl]-3,5-bis(trifluoromethyl)benzamide]		≥ 75	≥ 75		mortality at 300 ppm [2]: ≥ 75%
CC(NC(=O)c1cc(C(F)(F)F)cc(C(F)(F)F)c1)c1nccnc1-n1ncc(-c2ccn(C)n2)n1 (stereo not shown) [I-29, N-[1-[3-[4-(1-methylpyrazol-3-yl)triazol-2-yl]pyrazin-2-yl]ethyl]-3,5-bis(trifluoromethyl)benzamide]	≥ 75	≥ 75	≥ 75	≥ 75	mortality at 2500 ppm [3, 7]: 100%; mortality at 90 ppm [4, 8]: 100%
CC(C)Sc1cnn(-c2nccnc2C(C)NC(=O)c2cc(C(F)(F)F)cc(C(F)(F)F)c2)c1 (stereo not shown) [I-48, N-[1-[3-(4-isopropylsulfanylpyrazol-1-yl)pyrazin-2-yl]ethyl]-3,5-bis(trifluoromethyl)benzamide]			≥ 75	≥ 75	mortality at 300 ppm [2]: ≥ 75%; mortality at 90 ppm [4, 9]: 100%; mortality at 90 ppm ([5]; comparative experiment C.7): 100%
CC(NC(=O)c1cc(C(F)(F)F)cc(C(F)(F)F)c1)c1nccc(F)c1-n1cc(S(C)(=O)=O)cn1 (stereo not shown) [I-53, N-[1-[4-fluoro-3-(4-methylsulfonylpyrazol-1-yl)-2-pyridyl]ethyl]-3,5-bis(trifluoromethyl)benzamide]	≥ 75		≥ 75	≥ 75	
CC(NC(=O)c1cc(C(F)(F)F)cc(C(F)(F)F)c1)c1nccnc1-n1cc(S(=O)(=O)C(F)(F)F)cn1 (stereo not shown) [I-55, 3,5-bis(trifluoromethyl)-N-[1-[3-[4-(trifluoromethylsulfonyl)pyrazol-1-yl]pyrazin-2-yl]ethyl]benzamide]	≥ 75		≥ 75	≥ 75	mortality at 90 ppm ([4]; Anthonomus grandis, 90 ppm, comparative experiment C.6): 100%; mortality at 100 ppm [5]: 100%
CC[S+]([O-])c1cnn(-c2nccnc2C(C)NC(=O)c2cc(C(F)(F)F)cc(C(F)(F)F)c2)c1 (stereo not shown) [I-58]	≥ 75	≥ 75	≥ 75	≥ 75	mortality at 90 ppm [4, 9]: 100%; mortality at 90 ppm ([5]; comparative experiment C.7): 100%
CC(NC(=O)c1cc(C(F)(F)F)cc(C(F)(F)F)c1)c1nccnc1-n1cc(SC(F)(F)F)cn1 (stereo not shown) [I-60, 3,5-bis(trifluoromethyl)-N-[1-[3-[4-(trifluoromethyl-sulfanyl)pyrazol-1-yl]pyrazin-2-yl]ethyl]benzamide]	≥ 75		≥ 75	≥ 75	mortality at 300 ppm [2]: ≥ 75%
CC(NC(=O)c1cc(C(F)(F)F)cc(C(F)(F)F)c1)c1nccnc1-n1cc(S(=O)(=O)C2CC2)cn1 (stereo not shown) [I-65, N-[1-[3-(4-cyclopropylsulfonylpyrazol-1-yl)pyrazin-2-yl]ethyl]-3,5-bis(trifluoromethyl)benzamide]	≥ 75	≥ 75	≥ 75	≥ 75	
CC(NC(=O)c1cc(C(F)(F)F)cc(C(F)(F)F)c1)c1nccnc1-n1cc(S(=O)(=O)C(C)C)cn1 (stereo not shown) [I-67, N-[1-[3-(4-isopropylsulfonylpyrazol-1-yl)pyrazin-2-yl]ethyl]-3,5-bis(tri-fluoromethyl)benzamide]	≥ 75	≥ 75	≥ 75	≥ 75	
CC(NC(=O)c1cc(C(F)(F)F)cc(C(F)(F)F)c1)c1nccnc1-n1cc([S+]([O-])C(C)C)cn1 (stereo not shown) [I-69, N-[1-[3-(4-isopropylsulfinylpyrazol-1-yl)pyrazin-2-yl]ethyl]-3,5-bis(trifluoromethyl)benzamide]	≥ 75	≥ 75	≥ 75	≥ 75	
CC(NC(=O)c1cc(Cl)cc(S(C)(=O)=O)c1)c1nccnc1-n1ncc(-c2ccccn2)n1 (stereo not shown) [I-73]	≥ 75	≥ 75	≥ 75	≥ 75	mortality at 9.9 ppm ([4]; Anthonomus grandis): 100%; mortality at 274 ppm [5]: 100%
Cc1cnn(-c2nccnc2C(C)NC(=O)c2cc(C(F)(F)F)cc(C(F)(F)F)c2)n1 (stereo not shown) [WO2021/037614 P1, reference compound]					mortality at 30 ppm ([3]; comparative experiment C.1): 25%; mortality at 90 ppm ([5]; comparative experiment C.1): 25%
Cc1cn(-c2nccnc2C(C)NC(=O)c2cc(C(F)(F)F)cc(C(F)(F)F)c2)nn1 (stereo not shown) [WO2021/037614 P41, reference compound]					mortality at 90 ppm ([3]; 90 ppm, comparative experiment C.3): 0%; mortality at 30 ppm ([4]; Anthonomus grandis, 30 ppm, comparative experiment C.3): 0%
CC(NC(=O)c1cc(C(F)(F)F)cc(C(F)(F)F)c1)c1nccnc1-n1cc(C(F)(F)F)cn1 (stereo not shown) [WO2021/069575 I-92, reference compound]					mortality at 90 ppm ([1]; 90 ppm, comparative experiment C.4, read-out: B.5, 90 ppm (mortality)): 0%; mortality at 30 ppm ([3]; comparative experiment C.4): 0%; B.2, 90 ppm (mortality) ([4]; 90 ppm, comparative experiment C.6): 0%; mortality at 90 ppm ([4]; Anthonomus grandis, 90 ppm, comparative experiment C.4): 0%; mortality at 100 ppm [5]: 50%
CC(NC(=O)c1cc(C(F)(F)F)cc(C(F)(F)F)c1)c1nccnc1-n1cc(Cl)cn1 (stereo not shown) [WO2021/069575 I-96, reference compound]					mortality at 80 ppm ([1]; 80 ppm, comparative experiment C.5, read-out: B.5, 80 ppm (mortality)): 0%; mortality at 2500 ppm ([3]; comparative experiment C.5, read-out: B.6, 2500 ppm (mortality)): 0%; mortality at 90 ppm ([4]; Anthonomus grandis, 90 ppm, comparative experiment C.5): 50%
CC(NC(=O)c1cc(Cl)cc(S(C)(=O)=O)c1)c1nccnc1-n1nccn1 (stereo not shown) [WO2021/259997 I-1, reference compound]					mortality at 9.9 ppm ([4]; Anthonomus grandis): 0%; mortality at 274 ppm [5]: 0%
CC(NC(=O)c1cc(C(F)(F)F)cc(C(F)(F)F)c1)c1nccnc1-c1cn(-c2ccn(C)n2)nn1 (stereo not shown) [WO2021/259997 I-12, reference compound]					mortality at 2500 ppm [3, 7]: 0%; mortality at 90 ppm [4, 8]: 0%
